Active and inactive are the calls of the source. The calls are words filed in the database; no cut-off is given here.
Assays:
[1] = tested on: Rattus norvegicus; assay: Antihyperglycemic activity in sucrose challenged albino Sprague-Dawley rat STZ-S model assessed as decrease in blood glucose level at 100 mg/kg, po preincubated 30 min before sucrose challenge measured 24 hrs after last dose; format: functional; set-up: scale not given: the % may be the effect or the level left
[2] = tested on: Rattus norvegicus; assay: Antihyperglycemic activity in sucrose challenged albino Sprague-Dawley rat STZ-S model assessed as decrease in blood glucose level at 100 mg/kg, po preincubated 30 min before sucrose challenge measured 5 hrs after last dose; format: functional; set-up: scale not given: the % may be the effect or the level left
[3] = tested on: Syrian golden hamster; assay: Antidyslipidemic activity in high fat diet fed dyslipidemic golden Syrian hamster model assessed as change in plasma HDL to cholesterol ratio at 50 mg/kg, po administered once daily from day 4 to day 10 measured on day 10 after 2 hrs of last dose relative to baseline; format: functional, Mesocricetus auratus
[4] = tested on: Syrian golden hamster; assay: Antidyslipidemic activity in high fat diet fed dyslipidemic golden Syrian hamster model assessed as change in food intake at 50 mg/kg, po administered once daily from day 4 to day 10 measured on day 10 after 2 hrs of last dose relative to baseline; format: functional, Mesocricetus auratus
[5] = tested on: Syrian golden hamster; assay: Antidyslipidemic activity in high fat diet fed dyslipidemic golden Syrian hamster model assessed as change in plasma HDL-cholesterol level at 50 mg/kg, po administered once daily from day 4 to day 10 measured on day 10 after 2 hrs of last dose relative to baseline; format: functional, Mesocricetus auratus
[6] = tested on: Syrian golden hamster; assay: Antidyslipidemic activity in high fat diet fed dyslipidemic golden Syrian hamster model assessed as change in plasma cholesterol level at 50 mg/kg, po administered once daily from day 4 to day 10 measured on day 10 after 2 hrs of last dose relative to baseline; format: functional, Mesocricetus auratus
[7] = tested on: Syrian golden hamster; assay: Antidyslipidemic activity in high fat diet fed dyslipidemic golden Syrian hamster model assessed as change in plasma triglyceride level at 50 mg/kg, po administered once daily from day 4 to day 10 measured on day 10 after 2 hrs of last dose relative to baseline; format: functional, Mesocricetus auratus
[8] = tested on: Syrian golden hamster; assay: Antidyslipidemic activity in high fat diet fed dyslipidemic golden Syrian hamster model assessed as change in plasma […] level at 50 mg/kg, po administered once daily from day 4 to day 10 measured on day 10 after 2 hrs of last dose relative to baseline; format: functional, Mesocricetus auratus
[9] = tested on: Syrian golden hamster; assay: Antidyslipidemic activity in high fat diet fed dyslipidemic golden Syrian hamster model assessed as change in plasma glycerol level at 50 mg/kg, po administered once daily from day 4 to day 10 measured on day 10 after 2 hrs of last dose relative to baseline; format: functional, Mesocricetus auratus
[10] = tested on: Syrian golden hamster; assay: Antidyslipidemic activity in high fat diet fed dyslipidemic golden Syrian hamster model assessed as change in plasma cholesterol level at 108 mg/kg, po administered once daily from day 4 to day 10 measured on day 10 after 2 hrs of last dose; format: functional, Mesocricetus auratus
[11] = tested on: Syrian golden hamster; assay: Antidyslipidemic activity in high fat diet fed dyslipidemic golden Syrian hamster model assessed as change in plasma glycerol level at 108 mg/kg, po administered once daily from day 4 to day 10 measured on day 10 after 2 hrs of last dose; format: functional, Mesocricetus auratus
[12] = tested on: Syrian golden hamster; assay: Antidyslipidemic activity in high fat diet fed dyslipidemic golden Syrian hamster model assessed as change in plasma HDL to cholesterol ratio at 108 mg/kg, po administered once daily from day 4 to day 10 measured on day 10 after 2 hrs of last dose; format: functional, Mesocricetus auratus
[13] = tested on: Syrian golden hamster; assay: Antidyslipidemic activity in high fat diet fed dyslipidemic golden Syrian hamster model assessed as change in plasma triglyceride level at 108 mg/kg, po administered once daily from day 4 to day 10 measured on day 10 after 2 hrs of last dose; format: functional, Mesocricetus auratus
[14] = tested on: Syrian golden hamster; assay: Antidyslipidemic activity in high fat diet fed dyslipidemic golden Syrian hamster model assessed as change in plasma HDL-cholesterol level at 108 mg/kg, po administered once daily from day 4 to day 10 measured on day 10 after 2 hrs of last dose; format: functional, organism-based; set-up: dose 108 mg/kg; conditions: Mesocricetus auratus
[15] = tested on: Syrian golden hamster; assay: Antidyslipidemic activity in high fat diet fed dyslipidemic golden Syrian hamster model assessed as change in plasma cholesterol level at 100 mg/kg, po administered once daily from day 4 to day 10 measured on day 10 after 2 hrs of last dose relative to baseline; format: functional, Mesocricetus auratus
[16] = tested on: Syrian golden hamster; assay: Antidyslipidemic activity in high fat diet fed dyslipidemic golden Syrian hamster model assessed as change in plasma free fatty acid level at 100 mg/kg, po administered once daily from day 4 to day 10 measured on day 10 after 2 hrs of last dose relative to baseline; format: functional, Mesocricetus auratus
[17] = tested on: Syrian golden hamster; assay: Antidyslipidemic activity in high fat diet fed dyslipidemic golden Syrian hamster model assessed as change in plasma glycerol level at 100 mg/kg, po administered once daily from day 4 to day 10 measured on day 10 after 2 hrs of last dose relative to baseline; format: functional, Mesocricetus auratus
[18] = tested on: Syrian golden hamster; assay: Antidyslipidemic activity in high fat diet fed dyslipidemic golden Syrian hamster model assessed as change in plasma triglyceride level at 100 mg/kg, po administered once daily from day 4 to day 10 measured on day 10 after 2 hrs of last dose relative to baseline; format: functional, Mesocricetus auratus
[19] = tested on: Syrian golden hamster; assay: Antidyslipidemic activity in high fat diet fed dyslipidemic golden Syrian hamster model assessed as change in plasma HDL-cholesterol level at 100 mg/kg, po administered once daily from day 4 to day 10 measured on day 10 after 2 hrs of last dose relative to baseline; format: functional, Mesocricetus auratus
[20] = tested on: Syrian golden hamster; assay: Antidyslipidemic activity in high fat diet fed dyslipidemic golden Syrian hamster model assessed as change in plasma HDL to cholesterol ratio at 100 mg/kg, po administered once daily from day 4 to day 10 measured on day 10 after 2 hrs of last dose relative to baseline; format: functional, Mesocricetus auratus

C=C(C)[C@@H]1CC[C@]2(C)CC[C@]3(C)[C@H](CC[C@@H]4[C@@]5(C)CC[C@H](OC(=O)/C=C/c6ccco6)C(C)(C)[C@@H]5CC[C@]43C)[C@@H]12
Activity [1]: -18.5% | Activity [2]: -15.8%

C=C(C)[C@@H]1CC[C@]2(C)CC[C@]3(C)[C@H](CC[C@@H]4[C@@]5(C)CC[C@H](OC(=O)CNC(=O)c6ccccc6)C(C)(C)[C@@H]5CC[C@]43C)[C@@H]12
Activity [1]: -23.6% | Activity [2]: -13.8%

C=C(C)[C@@H]1CC[C@]2(C)CC[C@]3(C)[C@H](CC[C@@H]4[C@@]5(C)CC[C@H](OC(=O)c6ccc(Cl)cc6)C(C)(C)[C@@H]5CC[C@]43C)[C@@H]12
Activity [3]: 14% | Activity [4]: 4% | Activity [5]: -14% | Activity [1]: -19.6% | Activity [6]: -27% | Activity [7]: -11% | Activity [2]: -17.8% | Activity [8]: 5% | Activity [9]: -14%

C=C(C)[C@@H]1CC[C@]2(C)CC[C@]3(C)[C@H](CC[C@@H]4[C@@]5(C)CC[C@H](OC(=O)c6ccc([N+](=O)[O-])cc6)C(C)(C)[C@@H]5CC[C@]43C)[C@@H]12
Activity [3]: 4% | Activity [4]: 4% | Activity [5]: -30% | Activity [1]: -21.1% | Activity [6]: -34% | Activity [7]: -20% | Activity [2]: -14.8% | Activity [8]: 6% | Activity [9]: -21%

C=C(C)[C@@H]1CC[C@]2(C)CC[C@]3(C)[C@H](CC[C@@H]4[C@@]5(C)CC[C@H](OC(=O)/C=C/c6cccs6)C(C)(C)[C@@H]5CC[C@]43C)[C@@H]12
Activity [1]: -14.9% | Activity [2]: -12.5%

C=C(C)[C@@H]1CC[C@]2(C)CC[C@]3(C)[C@H](CC[C@@H]4[C@@]5(C)CC[C@H](OC(=O)/C=C/c6ccsc6)C(C)(C)[C@@H]5CC[C@]43C)[C@@H]12
Activity [1]: -21.5% | Activity [2]: -16.9%

C=C(C)[C@@H]1CC[C@]2(C)CC[C@]3(C)[C@H](CC[C@@H]4[C@@]5(C)CC[C@H](OC(=O)c6cccnc6)C(C)(C)[C@@H]5CC[C@]43C)[C@@H]12
Activity [3]: 57% | Activity [4]: 8% | Activity [5]: 5% | Activity [1]: -25% | Activity [6]: -24% | Activity [7]: -40% | Activity [2]: -18.3% | Activity [8]: 2% | Activity [9]: -30%

CN(C)C(=N)NC(=N)N [METFORMIN]
Activity [1]: -26.5% | Activity [2]: -23.5%

C=C(C)[C@@H]1CC[C@]2(C)CC[C@]3(C)[C@H](CC[C@@H]4[C@@]5(C)CC[C@H](OC(=O)c6ccc7ccccc7n6)C(C)(C)[C@@H]5CC[C@]43C)[C@@H]12
Activity [3]: -5% | Activity [4]: 11% | Activity [5]: -30% | Activity [6]: -27% | Activity [7]: -7% | Activity [8]: -8% | Activity [9]: -20%

CC(C)OC(=O)C(C)(C)Oc1ccc(C(=O)c2ccc(Cl)cc2)cc1 [FENOFIBRATE]
Activity [10]: -18% | Activity [11]: -36% | Activity [12]: 10% | Activity [13]: -42% | Activity [14]: inactive

C=C(C)[C@@H]1CC[C@]2(C)CC[C@]3(C)[C@H](CC[C@@H]4[C@@]5(C)CC[C@H](OC(=O)CCc6cccnc6)C(C)(C)[C@@H]5CC[C@]43C)[C@@H]12
Activity [1]: -10.4% | Activity [2]: -8.21%

C=C(C)[C@@H]1CC[C@]2(C)CC[C@]3(C)[C@H](CC[C@@H]4[C@@]5(C)CC[C@H](O)C(C)(C)[C@@H]5CC[C@]43C)[C@@H]12 [LUPEOL]
Activity [15]: -9% | Activity [16]: -23% | Activity [17]: -10% | Activity [18]: -26% | Activity [19]: 44% | Activity [20]: 63%

C=C(C)[C@@H]1CC[C@]2(C)CC[C@]3(C)[C@H](CC[C@@H]4[C@@]5(C)CC[C@H](OC(=O)/C=C/c6cccnc6)C(C)(C)[C@@H]5CC[C@]43C)[C@@H]12
Activity [1]: -15.7% | Activity [2]: -13.4%

C=C(C)[C@@H]1CC[C@]2(C)CC[C@]3(C)[C@H](CC[C@@H]4[C@@]5(C)CC[C@H](OC(=O)Cc6ccc(OC)cc6)C(C)(C)[C@@H]5CC[C@]43C)[C@@H]12
Activity [3]: 24% | Activity [4]: -4% | Activity [5]: -5% | Activity [6]: -25% | Activity [7]: 20% | Activity [8]: 4% | Activity [9]: -8%

C=C(C)[C@@H]1CC[C@]2(C)CC[C@]3(C)[C@H](CC[C@@H]4[C@@]5(C)CC[C@H](OC(=O)Cc6ccccn6)C(C)(C)[C@@H]5CC[C@]43C)[C@@H]12
Activity [1]: -18.2% | Activity [2]: -20.5%

From ChEMBL document CHEMBL1153634, “Synthesis of novel triterpenoid (lupeol) derivatives and their in vivo antihyperglycemic and antidyslipidemic activity” (2009)
